Experiment [1] has as its target T1, β-glucocerebrosidase, p.L444P mutation (GM08760A fibroblasts) (Homo sapiens, UniProt P04062, L483P).
T1 construct: host or cells: human Gaucher patient fibroblasts GM08760A, homozygous L444P
T1 sequence (P04062 40-536 L483P): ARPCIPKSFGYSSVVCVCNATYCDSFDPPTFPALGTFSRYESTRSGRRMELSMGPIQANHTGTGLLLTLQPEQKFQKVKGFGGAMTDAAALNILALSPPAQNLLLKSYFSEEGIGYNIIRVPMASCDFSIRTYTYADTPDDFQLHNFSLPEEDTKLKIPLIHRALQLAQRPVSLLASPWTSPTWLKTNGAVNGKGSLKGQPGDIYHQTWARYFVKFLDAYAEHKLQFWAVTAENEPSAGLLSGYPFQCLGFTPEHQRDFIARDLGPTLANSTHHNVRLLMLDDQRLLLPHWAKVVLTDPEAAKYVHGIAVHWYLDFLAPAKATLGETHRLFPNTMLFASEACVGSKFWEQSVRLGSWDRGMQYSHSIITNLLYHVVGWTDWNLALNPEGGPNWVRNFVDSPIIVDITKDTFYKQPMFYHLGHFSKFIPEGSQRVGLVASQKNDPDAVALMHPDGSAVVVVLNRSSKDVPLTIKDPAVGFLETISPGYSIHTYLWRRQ
Kind of experiment: Enhancement of β-glucocerebrosidase activity measured in Gaucher disease fibroblasts (L444P). Particulars: increase in enzyme activity vs non-treated cells, GBA fibroblasts bearing L444P. Type of experiment: cell-based. Put shortly:
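GM08760A fibroblasts (homozygous p.L444P), 5×10^3 cells/well, treated with compound for 4 days at 37° C. Intact cells then incubated with 4-MU-β-D-glucopyranoside in 0.1 M acetate buffer pH=4 for 1 hour at 37° C.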

Experiment [2] addresses T2, β-glucocerebrosidase Wild Type (WT) (Homo sapiens, UniProt P04062).
T2 construct: endogenous in cells
T2 sequence (P04062 40-536): T1 sequence (P04062 40-536 L483P) with P444L
Kind of experiment: β-glucocerebrosidase activity enhancement, Wild Type (WT). In kind it is cell-based. Particulars: increase in enzyme activity vs non-treated cells.

Where [3] appears, read: concentrations between 6 and 50 μM, 4 days incubation.

Here are results for three compounds from patent US11174242B2, “Heteroaryl compounds and their use” (Minoryx Therapeutics S.L., priority 2016, dated 2021).

Positions count from the first letter of the chain named.

For the compound `Cc1ccc(Nc2nc(N)nc(CN3CCCc4ccccc43)n2)cc1` [6-((3,4-dihydroquinolin-1(2H)-yl)methyl)-N2-(p-tolyl)-1,3,5-triazine-2,4-diamine], the “Activity L444P” value in experiment [1] (commercially available compounds, 6-50 μM, 4 days) was “C (Increase in comparison with non-treated of 1.2-1.7 fold is shown as C)”. Also, the “Activity WT” value in experiment [2] (commercially available compounds) is “C (Increase in comparison with non-treated of 1.2-1.7 fold is shown as C)”.
With `COc1cccc(Nc2nc(N)nc(CN(C)Cc3ccccc3)n2)c1` [Example 9], in experiment [1] (setting [3]), the “Activity L444P” value is on record as “C (Increase in comparison with non-treated of 1.2-1.7 fold is shown as C)”. In addition, the “Activity Wild Type (WT)” value in experiment [2] was “B (Increase in comparison with non-treated of >1.7-2.0 fold is shown as B)”.
The matching figures for `COc1ccc(OC)c(Nc2cc(CN(C)Cc3ccccc3)nc(N)n2)c1` [Example 41, 6-((Benzyl(methyl)amino)methyl)-N^4-(2,5-dimethoxyphenyl)pyrimidine-2,4-diamine]: “B (Increase in comparison with non-treated of >1.7-2.0 fold is shown as B)” and “C (Increase in comparison with non-treated of 1.2-1.7 fold is shown as C)”.
